Measured values published in ChEMBL document CHEMBL1201862, “PubChem BioAssay data set” (2004).
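Interpolation was linear, between the two tested concentrations surrounding the appropriate level; five concentrations were tested over 48 hours in 96-well plates. GI50 = concentration required for 50% inhibition of growth.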 The source made the active and inactive calls. No stated cut-off is given here; in the data, active = GI50 up to about 1.1 µM and inactive = higher.

Key:
Test in all cases: growth of human tumour cells (NCI), 48 h
HOP-92 = tested on: HOP-92
NCI-H460 = tested on: NCI-H460
DU-145 = tested on: DU-145
MOLT-4 = tested on: MOLT-4
M14 = tested on: M14
SK-MEL-2 = tested on: SK-MEL-2
UACC-257 = tested on: UACC-257
HT-29 = tested on: HT-29
OVCAR-5 = tested on: OVCAR-5
SNB-75 = tested on: SNB-75
ACHN = tested on: ACHN
A549 = tested on: A549
NCI-H226 = tested on: NCI-H226
U-251 = tested on: U-251
KM12 = tested on: KM12
OVCAR-4 = tested on: OVCAR-4
SF-268 = tested on: SF-268
SN12C = tested on: SN12C
PC-3 = tested on: PC-3
786-0 = tested on: 786-0

Measured: GI50

Cc1ccc(C(=O)CCl)o1
inactive: HOP-92 > 10 µM | NCI-H460 > 10 µM | DU-145 > 10 µM | MOLT-4 2.13 µM | M14 3.86 µM | SK-MEL-2 > 10 µM | UACC-257 > 9.2 µM | HT-29 4.71 µM | OVCAR-5 > 5.6 µM | SNB-75 > 9.46 µM | ACHN > 10 µM | A549 > 10 µM | NCI-H226 > 10 µM | U-251 > 10 µM | KM12 > 10 µM | OVCAR-4 4.15 µM | SF-268 > 6.97 µM | SN12C 3.69 µM | PC-3 > 10 µM | 786-0 4.28 µM

O=C(Cc1ccccc1)NCCc1ccc(O)c(O)c1
inactive: HOP-92 > 100 µM | NCI-H460 > 100 µM | DU-145 > 100 µM | MOLT-4 16.6 µM | M14 > 100 µM | SK-MEL-2 24.8 µM | UACC-257 > 100 µM | HT-29 > 100 µM | OVCAR-5 > 100 µM | SNB-75 > 100 µM | ACHN 64.4 µM | A549 > 100 µM | NCI-H226 > 100 µM | U-251 78.7 µM | KM12 > 100 µM | OVCAR-4 13 µM | SF-268 63.1 µM | SN12C 95.9 µM | PC-3 > 100 µM | 786-0 93.3 µM

Cc1cn(C2CC(N)C(CN)O2)c(=O)[nH]c1=O (stereo not given)
inactive: HOP-92 > 100 µM | NCI-H460 > 100 µM | DU-145 > 100 µM | MOLT-4 > 100 µM | M14 > 100 µM | SK-MEL-2 > 100 µM | UACC-257 > 100 µM | HT-29 > 100 µM | OVCAR-5 > 100 µM | SNB-75 38.5 µM | ACHN > 100 µM | A549 > 100 µM | NCI-H226 40.6 µM | U-251 > 100 µM | KM12 > 100 µM | OVCAR-4 > 100 µM | SF-268 > 100 µM | SN12C 80.7 µM | PC-3 > 100 µM | 786-0 > 100 µM

O=C1Nc2ccccc2SC1=C(C(=O)c1ccccc1)C(=O)c1ccccc1
inactive: HOP-92 38.1 µM | NCI-H460 28.1 µM | DU-145 38.1 µM | M14 28.3 µM | SK-MEL-2 24.8 µM | UACC-257 33.3 µM | HT-29 32.4 µM | OVCAR-5 27.8 µM | SNB-75 51.5 µM | ACHN 42.1 µM | A549 36.6 µM | NCI-H226 45.8 µM | U-251 33.2 µM | KM12 34 µM | OVCAR-4 43.2 µM | SF-268 32.1 µM | SN12C 24 µM | PC-3 26.3 µM | 786-0 43.7 µM
active: MOLT-4 1.04 µM

O=C1c2c(ccc3c2CCCC3)CC1Cc1ccc2c(c1)CCCC2 (stereo not given)
inactive: HOP-92 22 µM | NCI-H460 38.5 µM | DU-145 83.4 µM | MOLT-4 35 µM | M14 35.7 µM | SK-MEL-2 47.3 µM | UACC-257 28.3 µM | HT-29 17.1 µM | OVCAR-5 > 100 µM | SNB-75 4.68 µM | ACHN 80.4 µM | A549 41.5 µM | NCI-H226 > 100 µM | U-251 67 µM | KM12 59.2 µM | OVCAR-4 28.8 µM | SF-268 > 100 µM | SN12C 45 µM | PC-3 45.5 µM | 786-0 64 µM

CN1CC=C(c2c(N)nc(N)[nH]c2=O)CC1
inactive: HOP-92 > 100 µM | NCI-H460 > 100 µM | DU-145 > 100 µM | MOLT-4 > 100 µM | M14 > 100 µM | SK-MEL-2 > 100 µM | UACC-257 > 100 µM | HT-29 > 100 µM | OVCAR-5 > 100 µM | SNB-75 65.6 µM | ACHN > 100 µM | A549 > 100 µM | NCI-H226 > 100 µM | U-251 > 100 µM | KM12 > 100 µM | OVCAR-4 > 100 µM | SF-268 > 100 µM | SN12C > 100 µM | PC-3 > 100 µM | 786-0 > 100 µM

C[C@]12CC[C@H]3[C@@H](CCC4=C[C@@H](OC5OCC(OC6OC(CO)C(O)C(O)C6O)C(O)C5O)CC[C@@]43C=O)[C@@]1(O)CCC2C1=CC(=O)OC1 (stereo not given in full)
active: HOP-92 1.11 µM | NCI-H460 0.0982 µM | DU-145 0.435 µM | MOLT-4 0.0986 µM | HT-29 0.832 µM | ACHN 0.137 µM | A549 0.165 µM | U-251 0.849 µM | OVCAR-4 0.237 µM | SF-268 0.36 µM | SN12C 0.364 µM | PC-3 0.631 µM | 786-0 0.365 µM
inactive: M14 1.21 µM | SK-MEL-2 1.62 µM | UACC-257 1.42 µM | OVCAR-5 1.86 µM | SNB-75 1.4 µM | NCI-H226 2.15 µM | KM12 2.71 µM
